Assays:
scalp hair = assay: Hair shedding: hairs removed with brush, 4-day protocol (Example 5); assay type: in vivo, human
Text: Patients: Fifteen female subjects, ages 18-40, were included in the study. Subjects were recruited based on their frequent use of traumatic hair care practices, such as, tight braids, head scarves, ponytails, extensions, hair rollers, hair weaves and heated styling appliances such as blow dryers, flat irons, heat setters and curling irons. Subjects with uncontrolled hypertension, that were pregnant or breastfeeding, had been diagnosed with pattern hair loss or with other hair loss in conjunction with female pattern hair loss were excluded from the study. […] Piloerection and blanching were visible after 30 minutes; the effect lasted for approximately 2-3 hours.
Hair Shedding: To measure hair loss during cosmetic procedures, a 4-day protocol was designed. On the first day patients were instructed to wash their hair and use styling products and procedures as they normally would. On the second day, patients were instructed not to wash their hair and to apply 0.5 mL of a placebo solution, containing a vehicle only, on the frontal area of the scalp in an 8×10 cm2 target area. Patients were instructed to wait 45 minutes, after which, they brushed their hair 20 times from the front of the scalp to the bottom of head using a new brush. After the procedure, the brushes were sealed in a plastic bag. […] After each clinical procedure, the investigator counted the hairs collected on each brush. […]

scalp hair follicles = assay: Epilation force measured with trichotillometer (Example 5); assay type: in vivo, human; conditions: average of 10 subjects
Method: To evaluate the effect of a topically applied α1-AR agonist on the force required to pluck hairs from the scalp, a hand-held spring dynamometer, or “trichotillometer” was used (8). The trichotillometer records the maximum force threshold, in grams, required to pluck a single hair from the scalp; the performance and statistical variance of the instrument have been reported previously (8-10). Force measurements were performed using the trichotillometer on 10 subjects. The frontal area of scalp was divided into two 8×10 cm2 areas. On the right side 0.5 mL of a placebo vehicle was applied. […] After 45 minutes, ten hairs were plucked from each of the target areas with the trichotillometer.

SMILES: CNC[C@H](O)c1cccc(O)c1 [phenylephrine]
- subjects with reduced shedding compared to placebo (scalp hair; 15 female subjects, blinded study): 80%
- AVERAGE reduction in hair loss vs placebo (scalp hair; average of 15 subjects): approximately 42%
- AVERAGE increase of epilation force threshold vs placebo (scalp hair follicles): approximately 172%

Reference: patent US10238593B2, “System and method for preventing alopecia” (FOLLEA INTERNATIONAL, priority 2014, dated 2019)
